# Earlier results in US20090181086A1 (priority 2008, published 2009).
# Where two headings read alike, the source gives them in different places.
# Assays:
# human albumin = human albumin (Homo sapiens, UniProt P02768); details: concentration range of 1-100 ng/mL
# [1] = test system: monoamine oxidase type B (MAO-B); details: ex vivo, brain, liver and intestinal tissues
# CYP1A2 = CYP1A2 (Homo sapiens, UniProt P05177); details: in vitro
# platelet MAO-B = platelet MAO-B (Homo sapiens, UniProt P27338)
# Sequence of platelet MAO-B (P27338 whole entry): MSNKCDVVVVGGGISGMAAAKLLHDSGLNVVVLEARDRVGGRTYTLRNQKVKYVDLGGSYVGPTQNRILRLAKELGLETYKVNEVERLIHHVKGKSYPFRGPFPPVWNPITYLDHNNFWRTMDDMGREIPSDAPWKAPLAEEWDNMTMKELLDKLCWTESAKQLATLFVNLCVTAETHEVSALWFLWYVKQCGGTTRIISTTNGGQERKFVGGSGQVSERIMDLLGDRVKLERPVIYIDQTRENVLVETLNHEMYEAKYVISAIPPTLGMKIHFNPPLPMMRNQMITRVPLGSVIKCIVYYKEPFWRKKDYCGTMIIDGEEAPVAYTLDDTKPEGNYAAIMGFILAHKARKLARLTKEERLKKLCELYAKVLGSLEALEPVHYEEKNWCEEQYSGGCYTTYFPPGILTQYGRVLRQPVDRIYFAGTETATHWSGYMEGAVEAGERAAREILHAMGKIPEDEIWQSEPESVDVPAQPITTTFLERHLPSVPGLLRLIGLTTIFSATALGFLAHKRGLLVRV
# [2] = oral 14C-labeled rasagiline, over 7 days
# Sequence of human albumin (P02768 25-609): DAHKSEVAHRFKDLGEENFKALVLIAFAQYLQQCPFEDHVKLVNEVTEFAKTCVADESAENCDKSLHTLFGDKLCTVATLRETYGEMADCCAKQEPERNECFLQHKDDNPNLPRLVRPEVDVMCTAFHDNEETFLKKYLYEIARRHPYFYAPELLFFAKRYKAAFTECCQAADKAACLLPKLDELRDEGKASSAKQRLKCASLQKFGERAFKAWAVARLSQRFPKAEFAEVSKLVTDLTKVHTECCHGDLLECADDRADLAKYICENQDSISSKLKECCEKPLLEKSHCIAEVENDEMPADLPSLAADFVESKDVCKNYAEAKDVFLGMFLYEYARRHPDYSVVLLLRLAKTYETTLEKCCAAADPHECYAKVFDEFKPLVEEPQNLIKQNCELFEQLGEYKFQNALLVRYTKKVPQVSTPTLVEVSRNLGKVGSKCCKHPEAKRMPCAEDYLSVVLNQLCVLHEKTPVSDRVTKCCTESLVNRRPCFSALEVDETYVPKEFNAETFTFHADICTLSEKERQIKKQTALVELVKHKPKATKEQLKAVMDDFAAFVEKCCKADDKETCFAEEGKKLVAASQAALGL
# Sequence of CYP1A2 (P05177 whole entry, species assumed): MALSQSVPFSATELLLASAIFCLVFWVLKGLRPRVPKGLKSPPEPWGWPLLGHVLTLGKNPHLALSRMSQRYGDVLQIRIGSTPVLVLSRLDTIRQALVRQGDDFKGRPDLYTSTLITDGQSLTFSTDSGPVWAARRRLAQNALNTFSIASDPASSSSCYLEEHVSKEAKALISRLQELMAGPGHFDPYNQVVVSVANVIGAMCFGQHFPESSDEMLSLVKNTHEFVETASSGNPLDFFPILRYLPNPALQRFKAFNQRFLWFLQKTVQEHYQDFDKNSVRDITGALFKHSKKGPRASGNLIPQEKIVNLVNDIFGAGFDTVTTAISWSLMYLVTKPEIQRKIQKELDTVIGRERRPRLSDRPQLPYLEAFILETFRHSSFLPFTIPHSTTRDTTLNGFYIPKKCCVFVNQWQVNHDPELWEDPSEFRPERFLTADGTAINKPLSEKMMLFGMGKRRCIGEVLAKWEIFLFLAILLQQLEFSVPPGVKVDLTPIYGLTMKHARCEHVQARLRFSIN
compound,measurement,setting,value
"C#CCN[C@@H]1CCc2ccccc21 [rasagiline, R(+)-N-propargyl-1-aminoindan]",mean extent of binding to human albumin,human albumin,61-63%
same,"MAO-B inhibition, in words",[1],"potent, irreversible monoamine oxidase type B (MAO-B) selective inhibitor"
same,"pharmacokinetics versus dose, in words",doses over the range of 1-10 mg,linear
same,absolute bioavailability,"human, in vivo",about 36%
same,"effect of food on Tmax, in words","human, in vivo",does not affect
same,excreted as unchanged drug in urine,"human, in vivo",Less than 1%
same,mean steady-state half life,"human, in vivo",3 h
same,mean volume of distribution at steady-state,"human, in vivo",87 L
same,elimination via feces,[2],7 % of total dose
same,elimination via urine,[2],62 % of total dose
same,total calculated recovery,"oral 14C-labeled rasagiline, over a period of 38 days",84 % of the dose
same,decrease of Cmax,taken with a high fat meal,approximately 60%
same,decrease of exposure (AUC),taken with a high fat meal,~20%
same,"isoenzyme involved in rasagiline metabolism, in words",CYP1A2,CYP1A2 being the major isoenzyme involved
same,MAO-B inhibition,"platelet MAO-B; 3 days after daily dosing at 2 mg/day, maintained 3 days post-dose",Over 90%
same,MAO-B inhibition,platelet MAO-B; after a single rasagiline dose of 1 mg/day,25-35%
same,MAO-B inhibition,platelet MAO-B; after a single rasagiline dose of 2 mg/day,more than 55%
same,duration of platelet MAO-B inhibition after last dose,"platelet MAO-B; human, in vivo",at least 1 week
same,"MAO-B inhibition, in words","platelet MAO-B; multiple doses of 0.5, 1 and 2 mg per day",complete MAO-B inhibition
same,"MAO-B inhibition in platelets, in words",platelet MAO-B; recommended therapeutic dose,potent and irreversible inhibitor of MAO-B
same,Plasma protein binding,plasma protein,88-94%
